For data set [1], the system named is calf thymus topoisomerase I. The experiment in a line: Topoisomerase I-mediated DNA cleavage assay (calf thymus topoisomerase I). Particulars: for Topo I-mediated DNA cleavage (REC, Relative Effective Concentration): concentration relative to Hoechst 33342 (arbitrarily 1) producing the same cleavage on plasmid DNA, calf thymus topoisomerase I; for potency as topoisomerase I inhibitor (in words): compared with Hoechst 33342 or with each other. The data set is classed as biochemical. An excerpt: DNA topoisomerase I was purified from calf thymus gland as reported previously by B. D. Halligan et al., J. Biol. Chem. 260, 2475 (1985). Plasmid YEpG was also purified by the alkali lysis method followed by phenol deproteination and CsCl/ethidium isopycnic centrifugation as described by T. Mariatis et al., Molecular Cloning, A Laboratory Manual, Cold Spring Harbor Labs, N.Y. (1982) at pages 149-185. The end-labeling of the plasmid was accomplished as previously described by L. F. Liu et al., J. Biol. Chem., 258, 15365 (1983). The cleavage assays were performed as previously reported by A. Y. Chen et al., Cancer Res. 53, 1332 (1993). Human topoisomerase was isolated as a recombinant fusion protein using a T7 expression system.
^b Topoisomerase I cleavage values are reported as REC, Relative
Effective Concentration, i.e. concentrations relative to Hoechst 33342,
whose value is arbitrarily assumed as 1, that are able to produce the sam
cleavage on the plasmid DNA in the presence of calf thymus topoisomerase
I. Cleavage is calculated from the intensity of the strongest Hoechst

The subject of data set [2] is CPT-K5. The note with it: as reported by A. Y. Chen et al., Cancer Res., 53, 1332 (1993); cited from earlier work.
A further data set has as its system tumor cells. The experiment in a line: Cytotoxicity to tumor cells (cell line not specified). The data set is classed as cell-based. Particulars: for cytotoxicity of 3- and 4-pyridyl versus 2-pyridyl analog (in words): relative to the 2-pyridyl derivative, 14.
Data set [3] has as its system CPT-K5. The data set is described as follows: MTT cytotoxicity assay, camptothecin-resistant CPT-K5. The data set is classed as cell-based, human. As for the experimental part:
(§1) The cytotoxicity was determined using the as MTT-microtiter plate tetrazolinium cytotoxicity assay (MTA) following the procedures of F. Denizot et al., J. Immunol. […] The cytotoxicity assay was performed using 96-well microtiter plates. Cells were grown in suspension at 37° C. in 5% CO2 and maintained by regular passage in RPMI medium supplemented with 10% heat inactivated fetal bovine serum, L-glutamine (2 mM), penicillin (100 U/ml), and streptomycin (0.1 mg/ml). For determination of IC50, cells were exposed continuously with varying concentrations of drug concentrations and MTT assays were performed at the end of the fourth day.

The subject of data set [4] is human MDR1 (P-glycoprotein). The data set is described as follows: MDR1 (P-glycoprotein) substrate, inferred from KB 3-1 versus KB V-1 cytotoxicity. The data set is classed as cell-based. Particulars: inferred from KB 3-1 / KB V-1 IC50 values. As for the experimental part: The drug sensitive human epidermoid carcinoma KB3-1 cell line (S. Aliyama et al., Somatic Cell Mol. Genet., 11, 117 (1985)) and its vinblastine-selected multidrug-resistant variant KBV-1 cells (D. W. Shen et al., Science, 32, 643 (1986)) were provided by Dr. Michael Gottesmann (National Cancer Institute, Bethesda, Md.). These cells were grown as monolayer cultures at in 5% CO2 and maintained by regular passage in Dulbecco's minimal essential medium supplemented with 10% heat inactivated fetal bovine serum. KBV-1 cells were similarly maintained except they were grown in the presence of 1 μg/ml vinblastine.

In data set [5] the test system is KBV-1 cells. The data set is described as follows: MTT cytotoxicity assay, multidrug-resistant KBV-1 (overexpresses MDR1). It is filed as cell-based, human. The note with it: KB 3-1 versus KB V-1. As for the experimental part: as §1
These cells were grown as monolayer cultures at in 5% CO2 and maintained by regular passage in Dulbecco's minimal essential medium supplemented with 10% heat inactivated fetal bovine serum. KBV-1 cells were similarly maintained except they were grown in the presence of 1 μg/ml vinblastine.
Background: Formazan colour is commonly taken as a measure of viable cells.

For the next data set, the system named is topoisomerase I. Particulars: Hoechst 33342; cited from earlier work.
For data set [6] the following is noted: cited from earlier work.
The subject of data set [7] is KBV-1 cells. Particulars: as reported by A. Y. Chen et al., Adv. Pharmacol. (1994); cited from earlier work.
For a further data set, the system named is minor groove of DNA. Particulars: literature; cited from earlier work.

“Also recorded” adds a separate entry of the source.

For `c1ccc(-c2ccc3[nH]c(-c4ccc5[nH]c(-c6ccc7[nH]cnc7c6)nc5c4)nc3c2)nc1` [Compound 14, 5-(2-Pyridyl)-2-[2'-(benzimidazol-5"-yl)benzimidazol-5'-yl]benzimidazole], the antifungal activity entry in “Antifungal activity” is “exhibits antifungal activity”. The “Topo I-mediated DNA cleavage (REC, Relative Effective Concentration)” value in data set [1] turned out to be 3.3.
For `CC[C@@]1(O)C(=O)OCc2c1cc1n(c2=O)Cc2cc3ccccc3nc2-1` [camptothecin], the “relative resistance of camptothecin” value in the data set with CPT-K5 [2] was 2,500 fold.
On to `CCCc1ccc2[nH]c(-c3ccc4[nH]c(-c5ccc6[nH]cnc6c5)nc4c3)nc2c1` [Compound 12, 5-Propyl-2-[2'-(benzimidazol-5"-yl)benzimidazol-5'-yl]benzimidazole], for which, in [1], the “potency as topoisomerase I inhibitor (in words)” value is reported as “much less active than either 10, 11, or 13” and the “Topo I-mediated DNA cleavage (REC, Relative Effective Concentration)” value is on record as 100. Further, in the data set on tumor cells, the “cytotoxicity to tumor cells (in words, general)” value was “weak cytotoxicity”.
`c1cc(-c2ccc3[nH]c(-c4ccc5[nH]c(-c6ccc7[nH]cnc7c6)nc5c4)nc3c2)ccn1` [Compound 16, 5-(4-Pyridyl)-2-[2'-(benzimidazol-5"-yl)benzimidazol-5'-yl]benzimidazole]: in data set [1], the “potency as topoisomerase I inhibitor (in words)” value is listed as “somewhat more active than the 2-pyridyl derivative, 14” and the “Topo I-mediated DNA cleavage (REC, Relative Effective Concentration)” value amounted to 2. Besides, the “cytotoxicity of 3- and 4-pyridyl versus 2-pyridyl analog (in words)” value with tumor cells is listed as “somewhat more active than the 2-pyridyl derivative, 14”.
As for `c1ccc(-c2ccc3[nH]c(-c4ccc5[nH]c(-c6ccc7[nH]cnc7c6)nc5c4)nc3c2)cc1` [Compound 13, 5-Phenyl-2-[2'(benzimidazol-5"-yl)benzimidazol-5'-yl]benzimidazole], the “effect against camptothecin-resistant CPT-K5 cells (in words)” value in the data set with CPT-K5 [3] is reported as “effective against camptothecin-resistant CPT-K5 cells”. Besides, the “substrate for human MDR1” value in [4] is listed as “appears not to be a substrate for human MDR1”. Also, in [1], the “potency as topoisomerase I inhibitor (in words)” value was “approximately one-half as potent as Hoechst 33342” and the “Topo I-mediated DNA cleavage (REC, Relative Effective Concentration)” value is 2. Further, in the data set with KBV-1 cells [5], the “IC50 difference between KB 3-1 and KB V-1 cells (in words)” value is reported as “little difference”.
For `c1cncc(-c2ccc3[nH]c(-c4ccc5[nH]c(-c6ccc7[nH]cnc7c6)nc5c4)nc3c2)c1` [Compound 15, 5-(3-Pyridyl)-2-[2'-(benzimidazol-5"-yl)benzimidazol-5'-yl]benzimidazole], in [1], the “potency as topoisomerase I inhibitor (in words)” value was “somewhat more active than the 2-pyridyl derivative, 14” and the “Topo I-mediated DNA cleavage (REC, Relative Effective Concentration)” value was determined as 2. Also, the “cytotoxicity of 3- and 4-pyridyl versus 2-pyridyl analog (in words)” value in the data set with tumor cells is recorded as “somewhat more active than the 2-pyridyl derivative, 14”.
Consider `CCOc1ccc(-c2nc3cc(-c4nc5cc(N6CCN(C)CC6)ccc5[nH]4)ccc3[nH]2)cc1` [Hoechst 33342, 2'-(4-ethoxyphenyl)-5-(4-methyl-1-piperazinyl)-2,5'-bi-1H-benzimidazole], for which the “effect against camptothecin-resistant CPT-K5 cells (in words)” value in the data set on CPT-K5 [3] was “effective against camptothecin-resistant CPT-K5 cells”. Besides, the “topoisomerase I inhibition (literature)” value in the data set on topoisomerase I was “inhibitor of topoisomerase I; also recorded: traps the reversible cleavable complex derived from DNA and topoisomerase I”. For the same compound, in data set [6], the “protonation at physiological pH” value is reported as “extensively protonated at physiological pH”. In the data set on KBV-1 cells [7], the “IC50 difference, KB 3-1 as compared to KB V-1 cells (literature)” value is “approximately two-orders of magnitude”. The “binding to DNA” value in the data set on minor groove of DNA is recorded as “binds to the minor groove of DNA”.
On to `c1ccc2[nH]c(-c3ccc4[nH]c(-c5ccc6[nH]cnc6c5)nc4c3)nc2c1` [Compound 10, 2-[2'-(Benzimidazol-5"-yl)benzimidazol-5'-yl]benzimidazole], for which the “Topo I-mediated DNA cleavage (REC, Relative Effective Concentration)” value in data set [1] came out at 1.1.
For `N#Cc1ccc2[nH]c(-c3ccc4[nH]cnc4c3)nc2c1` [Compound 19, 5-Cyano-2-(benzimidazol-5'-yl)benzimidazole], the “Topo I-mediated DNA cleavage (REC, Relative Effective Concentration)” value in [1] is 1000.
Same read-out and setting: next, `N#Cc1ccc2[nH]c(-c3ccc4[nH]c(-c5ccc6[nH]cnc6c5)nc4c3)nc2c1` [Compound 11, 5-Cyano-2-[2'-(benzimidazol-5"-yl)benzimidazol-5'-yl]benzimidazole]: 1.
